Results reported in patent US20030130336A1, “Method of determining the activity of a central nervous system drug on striatal dopamine transporter populations” (Pfizer Inc., priority 2002, published 2003).
Where a name gives a salt, the structure may show the parent alone.

Biological target: T1, dopamine transporters (DAT) in the striatal nuclei (Homo sapiens, UniProt Q01959)
T1 construct: from tissue; host or cells: striatum (caudate and putamen) of living volunteers, imaged in vivo by SPECT
Test: [123I]β-CIT SPECT imaging of striatal DAT binding (V3″ ratio)
Type: in vivo

T1 sequence (Q01959 whole entry): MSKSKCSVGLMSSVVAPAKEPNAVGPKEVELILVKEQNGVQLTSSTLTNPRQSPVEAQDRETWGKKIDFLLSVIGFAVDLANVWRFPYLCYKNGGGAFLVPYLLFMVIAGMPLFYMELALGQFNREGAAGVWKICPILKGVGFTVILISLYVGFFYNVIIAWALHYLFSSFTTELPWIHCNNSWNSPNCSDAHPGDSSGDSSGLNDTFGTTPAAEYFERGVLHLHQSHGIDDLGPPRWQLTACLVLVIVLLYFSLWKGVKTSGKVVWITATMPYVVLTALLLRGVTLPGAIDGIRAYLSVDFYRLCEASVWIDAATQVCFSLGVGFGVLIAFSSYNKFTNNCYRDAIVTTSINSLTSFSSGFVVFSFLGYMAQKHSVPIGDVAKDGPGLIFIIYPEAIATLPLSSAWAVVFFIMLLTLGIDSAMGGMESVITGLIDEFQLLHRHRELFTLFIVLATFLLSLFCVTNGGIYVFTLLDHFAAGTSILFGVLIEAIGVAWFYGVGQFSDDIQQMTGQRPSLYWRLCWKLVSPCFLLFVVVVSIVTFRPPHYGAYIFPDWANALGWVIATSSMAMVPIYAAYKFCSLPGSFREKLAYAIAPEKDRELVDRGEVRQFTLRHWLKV

In the case of CC(NC(C)(C)C)C(=O)c1cccc(Cl)c1 (stereo not drawn) [bupropion hydrochloride], the “St-V3″ (Mean ± SD), Scan 2” value (striatum, specific to non-specific [123I]β-CIT binding, Day 8, Group 1 bupropion HCl SR 100 mg po qAM, Group 2 citalopram 20 mg po BID, days 1-8, healthy volunteers) is reported as 7.42 ± 1.13, the “St-V3″ (Mean ± SD), Scan 3” value (striatum, Day 16, Group 1 bupropion HCl SR 100 mg po BID days 9-16, Group 2 citalopram 20 mg po BID plus bupropion HCl SR 100 mg qAM days 9-16) is reported as 7.37 ± 1.69 and the “change in striatal DAT binding” value (versus baseline Scan 1, RMANOVA, paired t-test with Bonferroni correction) is reported as “did not lead to any significant changes”.
